Source: ChEMBL document CHEMBL1909046, “DrugMatrix in vitro pharmacology data”
pIC50, pKi: −log10 of the molar value.

Legend:
Cannabinoid receptor 1 = Cannabinoid receptor 1 (Homo sapiens, UniProt P21554); type: cell membranes, Membrane; conditions: chem-1; further: in other assays of this panel Not Active means under 50% inhibition at 10 µM
[1] = DRUGMATRIX: Phosphodiesterase PDE3 enzyme inhibition (substrate: [3H]cAMP + cAMP); type: tissue-based, Homo sapiens; conditions: platelet; Not Active = under 50% inhibition at 10 µM
Cathepsin G = molecular target: T1, Cathepsin G (Homo sapiens, UniProt P08311); type: tissue-based; conditions: neutrophil;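 further: inhibition of Cathepsin G enzyme activity, tested on an AMC-conjugated peptide substrate; in other assays of this panel Not Active means under 50% inhibition at 10 µM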
T1 sequence (P08311 whole entry): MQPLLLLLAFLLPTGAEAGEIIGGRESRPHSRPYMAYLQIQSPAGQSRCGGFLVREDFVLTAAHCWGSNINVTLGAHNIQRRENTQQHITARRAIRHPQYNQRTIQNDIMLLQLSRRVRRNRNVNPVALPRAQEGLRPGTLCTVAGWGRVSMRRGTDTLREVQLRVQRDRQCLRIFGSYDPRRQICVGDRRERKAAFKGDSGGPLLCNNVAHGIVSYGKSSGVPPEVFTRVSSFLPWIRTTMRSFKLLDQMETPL

[2] = molecular target: Sigma non-opioid intracellular receptor 1 (Homo sapiens, UniProt Q99720); assay: DRUGMATRIX: Sigma1 radioligand binding (ligand: [3H] Haloperidol); type: cell membranes, Jurkat, Membrane; conditions: Not Active = under 50% inhibition at 10 µM
Sigma non-opioid intracellular receptor 1, sequence (Q99720 whole entry): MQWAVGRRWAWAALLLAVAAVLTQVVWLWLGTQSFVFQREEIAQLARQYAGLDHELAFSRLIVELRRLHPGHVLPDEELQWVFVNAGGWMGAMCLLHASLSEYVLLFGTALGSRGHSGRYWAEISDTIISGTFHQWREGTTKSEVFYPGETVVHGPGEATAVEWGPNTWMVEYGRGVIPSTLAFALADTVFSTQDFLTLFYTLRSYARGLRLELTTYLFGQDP

Adenosine receptor A1 = molecular target: T2, Adenosine receptor A1 (Homo sapiens, UniProt P30542); type: cell membranes, CHO, Membrane; conditions: cho;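 further: radioligand binding assay at the adenosine A1 receptor, with DPCPX serving as the labelled ligand; in other assays of this panel Not Active means under 50% inhibition at 10 µM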
T2 sequence (P30542 whole entry): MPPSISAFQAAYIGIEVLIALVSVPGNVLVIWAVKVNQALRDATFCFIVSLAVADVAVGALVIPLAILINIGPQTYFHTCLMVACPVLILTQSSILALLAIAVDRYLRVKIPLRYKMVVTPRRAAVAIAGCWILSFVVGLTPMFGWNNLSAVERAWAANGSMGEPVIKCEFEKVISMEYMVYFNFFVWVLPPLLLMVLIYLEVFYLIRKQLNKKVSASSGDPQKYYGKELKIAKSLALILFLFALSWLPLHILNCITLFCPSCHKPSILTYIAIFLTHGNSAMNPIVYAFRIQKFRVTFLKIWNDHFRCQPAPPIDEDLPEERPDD

Cytochrome P450 2C9 = Cytochrome P450 2C9 (Homo sapiens, UniProt P11712); conditions: bti-tn-5b1-4; further: in other assays of this panel Not Active means under 50% inhibition at 10 µM
Cytochrome P450 2C9, sequence (P11712 whole entry): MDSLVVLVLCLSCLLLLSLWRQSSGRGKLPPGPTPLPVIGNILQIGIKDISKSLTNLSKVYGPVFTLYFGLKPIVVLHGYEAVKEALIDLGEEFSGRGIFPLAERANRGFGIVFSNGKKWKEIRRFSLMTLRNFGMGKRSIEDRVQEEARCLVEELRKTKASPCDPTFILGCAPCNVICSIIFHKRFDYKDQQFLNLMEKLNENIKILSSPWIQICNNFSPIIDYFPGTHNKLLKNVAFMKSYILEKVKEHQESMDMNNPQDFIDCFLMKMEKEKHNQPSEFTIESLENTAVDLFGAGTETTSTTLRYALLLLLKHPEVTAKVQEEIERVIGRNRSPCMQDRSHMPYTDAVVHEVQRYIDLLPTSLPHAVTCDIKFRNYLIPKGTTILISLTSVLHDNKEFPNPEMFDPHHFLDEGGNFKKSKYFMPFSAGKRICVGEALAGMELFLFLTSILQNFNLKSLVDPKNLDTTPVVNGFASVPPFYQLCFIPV

Progesterone receptor = molecular target: T3, Progesterone receptor (Bos taurus, UniProt Q690N0); assay: DRUGMATRIX: Progesterone radioligand binding (ligand: [3H] R-5020); type: tissue-based, Uterus; conditions: Not Active = under 50% inhibition at 10 µM
T3 sequence (Q690N0 whole entry): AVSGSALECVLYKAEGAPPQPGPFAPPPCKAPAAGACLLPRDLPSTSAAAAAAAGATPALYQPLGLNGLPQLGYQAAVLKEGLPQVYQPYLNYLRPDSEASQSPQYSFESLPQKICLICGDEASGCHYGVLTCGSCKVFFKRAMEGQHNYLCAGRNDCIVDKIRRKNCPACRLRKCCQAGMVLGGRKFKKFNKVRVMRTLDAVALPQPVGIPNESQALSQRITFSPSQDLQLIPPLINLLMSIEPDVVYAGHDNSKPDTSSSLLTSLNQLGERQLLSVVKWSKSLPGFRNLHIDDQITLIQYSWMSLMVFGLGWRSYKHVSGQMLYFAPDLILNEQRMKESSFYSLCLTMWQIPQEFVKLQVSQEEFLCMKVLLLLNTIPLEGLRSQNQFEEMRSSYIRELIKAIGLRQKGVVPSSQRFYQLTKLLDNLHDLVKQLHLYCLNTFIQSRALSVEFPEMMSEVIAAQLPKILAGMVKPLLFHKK

Cannabinoid receptor 1, sequence (P21554 whole entry): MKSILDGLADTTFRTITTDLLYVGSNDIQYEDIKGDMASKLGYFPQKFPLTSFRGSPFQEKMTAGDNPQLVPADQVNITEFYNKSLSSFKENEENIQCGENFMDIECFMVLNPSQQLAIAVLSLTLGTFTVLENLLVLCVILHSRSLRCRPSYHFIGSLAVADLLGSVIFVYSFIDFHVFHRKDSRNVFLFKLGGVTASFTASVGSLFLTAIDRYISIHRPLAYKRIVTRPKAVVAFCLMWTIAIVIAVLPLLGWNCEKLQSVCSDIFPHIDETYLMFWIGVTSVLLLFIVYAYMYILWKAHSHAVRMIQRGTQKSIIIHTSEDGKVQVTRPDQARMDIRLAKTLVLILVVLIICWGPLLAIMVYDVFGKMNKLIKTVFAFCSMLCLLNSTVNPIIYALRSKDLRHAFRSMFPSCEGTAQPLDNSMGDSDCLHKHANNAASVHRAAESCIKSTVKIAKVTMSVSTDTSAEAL

Compound	IC50 (Cannabinoid receptor 1)	IC50 [1]	Ki [1]	IC50 (Cathepsin G)	IC50 ([2]; jurkat)	IC50 (Adenosine receptor A1)	IC50 (Cytochrome P450 2C9)	Ki (Cytochrome P450 2C9)	IC50 (Progesterone receptor)	pIC50 ([2]; read-out: IC50)	pKi ([2]; read-out: Ki)	pIC50 (Progesterone receptor; read-out: IC50)	pKi (Progesterone receptor; read-out: Ki)	Ki (Cannabinoid receptor 1)	Ki (Cathepsin G)	Ki ([2]; jurkat)	Ki (Adenosine receptor A1)	Ki (Progesterone receptor)
Nc1c2c(nc3ccccc13)CCCC2 [TACRINE]	Not Active	Not Active	Not Active	Not Active	Not Active	Not Active	Not Active	Not Active	Not Active									
CC(C)N1CCN(c2ccc(OCC3COC(Cn4cncn4)(c4ccc(Cl)cc4Cl)O3)cc2)CC1 (stereo unspecified) [TERCONAZOLE]	Not Active	Not Active	Not Active	Not Active		Not Active	Not Active	Not Active	Not Active	6.29	6.67							
Nc1nc2nc[nH]c2c(=S)[nH]1 [THIOGUANINE]	Not Active	Not Active	Not Active	Not Active	Not Active	Not Active	Not Active	Not Active	Not Active									
Cc1cccc(N(C)C(=S)Oc2ccc3ccccc3c2)c1 [TOLNAFTATE]	Not Active	Not Active	Not Active	Not Active	Not Active	Not Active	Not Active	Not Active	Not Active									
CC1(C)O[C@@H]2C[C@H]3[C@@H]4CCC5=CC(=O)C=C[C@]5(C)[C@@]4(F)[C@@H](O)C[C@]3(C)[C@]2(C(=O)CO)O1 [TRIAMCINOLONE ACETONIDE]	Not Active	Not Active	Not Active	Not Active	Not Active	Not Active	Not Active	Not Active				6.75	7.64					
NS(=O)(=O)c1cc2c(cc1Cl)NC(C(Cl)Cl)NS2(=O)=O (stereo unspecified) [TRICHLORMETHIAZIDE]	Not Active	Not Active	Not Active	Not Active	Not Active	Not Active	Not Active	Not Active	Not Active									
N[C@@H]1[C@H]2CN(c3nc4c(cc3F)c(=O)c(C(=O)O)cn4-c3ccc(F)cc3F)C[C@@H]12 [TROVAFLOXACIN]	Not Active	Not Active	Not Active	Not Active	Not Active	Not Active	Not Active	Not Active	Not Active									
N#CC(C#N)=Cc1ccc(O)c(O)c1 [TYRPHOSTIN 23]	Not Active	Not Active	Not Active	Not Active	Not Active	Not Active	Not Active	Not Active	Not Active									
CC[C@]1(O)C[C@H]2CN(CCc3c([nH]c4ccccc34)[C@@](C(=O)OC)(c3cc4c(cc3OC)N(C=O)[C@H]3[C@@](O)(C(=O)OC)[C@H](OC(C)=O)[C@]5(CC)C=CCN6CC[C@]43[C@@H]65)C2)C1 [VINCRISTINE]	Not Active	Not Active	Not Active	Not Active	Not Active	Not Active	Not Active	Not Active	Not Active									
CCCOc1ccccc1-c1nc2nn[nH]c2c(=O)[nH]1 [ZAPRINAST]	Not Active	Not Active	Not Active	Not Active	Not Active	Not Active	Not Active	Not Active	Not Active									
SODIUM NITROPRUSSIDE	Not Active	Not Active	Not Active	Not Active	Not Active	Not Active	Not Active	Not Active	Not Active					Not Active	Not Active	Not Active	Not Active	Not Active
